Laboratory results published in ChEMBL document CHEMBL1158658, “Pyrrolizidine Alkaloids From Middle Eastern Plants” (1979).

Tests used:
Type in all cases: functional
P388 [1] = test: Antitumor activity against mouse P388 cells xenografted in male organism at 800 mg/kg relative to control
P388 [2] = test: Antitumor activity against mouse P388 cells xenografted in male organism at 400 mg/kg relative to control
P388 [3] = test: Antitumor activity against mouse P388 cells xenografted in male organism at 200 mg/kg relative to control
P388 [4] = test: Antitumor activity against mouse P388 cells xenografted in male organism at 100 mg/kg relative to control
P388 [5] = test: Antitumor activity against mouse P388 cells xenografted in female organism at 800 mg/kg relative to control
P388 [6] = test: Antitumor activity against mouse P388 cells xenografted in female organism at 400 mg/kg relative to control
P388 [7] = test: Antitumor activity against mouse P388 cells xenografted in female organism at 200 mg/kg relative to control
P388 [8] = test: Antitumor activity against mouse P388 cells xenografted in female organism at 100 mg/kg relative to control
P388 [9] = test: Antitumor activity against mouse P388 cells xenografted in female organism at 50 mg/kg relative to control

Compound	T/C (P388 [1])	T/C (P388 [2])	T/C (P388 [3])	T/C (P388 [4])	T/C (P388 [5])	T/C (P388 [6])	T/C (P388 [7])	T/C (P388 [8])	T/C (P388 [9])
CO[C@@H](C)[C@](O)(C(=O)OCC1=CC[N+]2([O-])CC[C@H](O)[C@@H]12)C(C)(C)O (stereo not given in full)	111	129	102	111	–	–	–	–	–
CC(C)[C@@](O)(C(=O)OCC1=CC[N+]2([O-])CC[C@H](O)[C@@H]12)[C@H](C)O (stereo not given in full)	–	–	–	–	145	138	118	113	109
CC(C)[C@](O)(C(=O)OCC1=CC[N+]2([O-])CC[C@@H](O)[C@@H]12)[C@H](C)O (stereo not given in full) [INDICINE N-OXIDE]	187	165	147	–	109	136	130	–	–
